EC50 data for 16 compounds are collected here from patent publication US11571423B2, “Small molecule modulators of human sting” (Curadev Pharma Limited, priority 2017, dated 2023).

In assay [1] the target is hSTING(H232) (Homo sapiens, UniProt Q86WV6). Kind of assay: Luciferase reporter assay in HEK293T-hSTING-Luciferase cells, H232/REF polymorph. It is filed as cell-based. As to conditions: H232/REF polymorph of human STING, EC50 range class. Summed up: (§1)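 HEK293T cells stably co-express the hSTING variant (hEF1-HTLV promoter) and an ISRE/ISG54 IRF-inducible luciferase reporter. Clones with minimal ligand-independent activation were used. Cells were stimulated with compounds for 20 hr, and secreted luciferase in the supernatant was read by luminescence to give EC50.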
(In general: In a reporter assay the amount or activity of a reporter protein is the signal.)

The test system of assay [2] is NF-κB pathway. As to the kind of experiment: Reporter gene expression assay in THP1-Dual cells, NFkB axis (secreted SEAP). In kind it is cell-based, human. The following applies: Homo sapiens, 20 hr stimulation, EC50 range class, read-out: THP-NFκB activity. In short, it runs like this: (§2)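 Human THP-1 monocyte-derived cells with two inducible reporters: 5×10^5 cells seeded and stimulated with compounds for 20 hr. SEAP (QUANTI-Blue) and Lucia luciferase (QUANTI-Luc) measured in supernatant; EC50 values reported as ranges.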

Assay [3] addresses hSTING(R232) (Homo sapiens, UniProt Q86WV6, H232R). Kind of assay: Luciferase reporter assay in HEK293T-hSTING-Luciferase cells, R232 (wild type) human STING. The following applies: 20 hr stimulation, read-out: R232 human activity (EC50 range). It is filed as cell-based. In short, it runs like this:
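After 20 hr compound stimulation of 5×10^5 cells, secreted luciferase in the supernatant was measured by luminescence; values are fold-induction over baseline and EC50. The line is a clonal HEK293T stably carrying a STING plasmid (pUNO-1) and a luciferase reporter under five tandem ISREs fused to an ISG54 promoter.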

Assay [4] addresses hSTING(HAQ) (Homo sapiens, UniProt Q86WV6, G230A/H232R/R293Q/R71H). As to the kind of experiment: Luciferase reporter assay in HEK293T-hSTING-Luciferase cells, HAQ polymorph. As to conditions: HAQ polymorph of human STING, EC50 range class. It is filed as cell-based. Summed up:
as §1

Assay [5] deals with IRF pathway. Kind of assay: Reporter gene expression assay in THP1-Dual cells, IRF axis (secreted Lucia luciferase). In kind it is cell-based, human. The following applies: Homo sapiens, 20 hr stimulation, EC50 range class, read-out: THP-IRF activity. In short, it runs like this:
as §2

Assay [6] has as its target cynomolgus monkey STING protein (Macaca fascicularis, UniProt A0A2R3XZA6). As to the kind of experiment: Luciferase reporter assay, cynomolgus monkey STING overexpressed in HEK293T cells. It is filed as cell-based. As to conditions: cynomolgus monkey STING overexpressed in HEK293T cells; read-out: Cynomolgus monkey STING activity (EC50 range). In short, it runs like this: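 HEK293T cells overexpressing cynomolgus STING with a secreted luciferase reporter were stimulated with compound for 20 hr. Supernatant reporter activity was then measured by Quanti-Luc luminescence, and EC50 values were derived.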

Where only a bound is given, the exact number is not on record here.

Sequence of cynomolgus monkey STING protein (A0A2R3XZA6 entry or part of it): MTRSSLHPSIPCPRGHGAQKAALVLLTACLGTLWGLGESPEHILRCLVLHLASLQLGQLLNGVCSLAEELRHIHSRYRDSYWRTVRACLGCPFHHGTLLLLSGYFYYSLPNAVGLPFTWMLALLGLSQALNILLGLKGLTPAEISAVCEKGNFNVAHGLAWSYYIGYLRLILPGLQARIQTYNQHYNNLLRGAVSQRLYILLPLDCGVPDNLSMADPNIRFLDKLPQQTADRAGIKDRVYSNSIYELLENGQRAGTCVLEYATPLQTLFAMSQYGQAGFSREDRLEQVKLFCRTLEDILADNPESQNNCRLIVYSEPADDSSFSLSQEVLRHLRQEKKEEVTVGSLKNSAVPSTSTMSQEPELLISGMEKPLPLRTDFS
Sequence of hSTING(H232) (Q86WV6 whole entry): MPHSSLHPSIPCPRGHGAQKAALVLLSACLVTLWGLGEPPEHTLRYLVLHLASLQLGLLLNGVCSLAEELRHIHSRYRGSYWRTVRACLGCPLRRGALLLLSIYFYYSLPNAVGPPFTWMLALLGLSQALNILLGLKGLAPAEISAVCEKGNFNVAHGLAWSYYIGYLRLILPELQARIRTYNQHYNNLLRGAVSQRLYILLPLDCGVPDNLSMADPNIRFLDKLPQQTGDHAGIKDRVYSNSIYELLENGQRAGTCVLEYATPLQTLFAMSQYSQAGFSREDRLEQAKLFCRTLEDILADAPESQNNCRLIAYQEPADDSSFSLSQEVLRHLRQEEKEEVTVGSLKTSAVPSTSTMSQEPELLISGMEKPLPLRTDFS
Sequence of hSTING(HAQ) (Q86WV6 whole entry R71H/G230A/H232R/R293Q): as the sequence (Q86WV6 whole entry) above, with R71H, G230A, H232R, R293Q counted along it
Sequence of hSTING(R232) (Q86WV6 whole entry H232R, the tested form may be a part): as the sequence (Q86WV6 whole entry) above, with H232R counted along it

For the compound `C[C@H]1c2ccc(C(=O)NCc3c(F)cc(F)cc3F)cc2N(Cc2cc(O)ccc2F)C(=O)N1C` [Example 262, (S)-1-(2-fluoro-5-hydroxybenzyl)-3,4-dimethyl-2-oxo-N-(2,4,6-trifluorobenzyl)-1,2,3,4-tetrahydroquinazoline-7-carboxamide], the EC50 in assay [1], in assay [2], in assay [3], in assay [4], in assay [5] and in assay [6] was < 1000 nM each time.
Consider `C[C@H]1c2ccc(C(=O)NCc3c(F)cc(F)cc3F)cc2N(Cc2c(F)cc(OCCNS(C)(=O)=O)cc2F)C(=O)N1C` [Example 290, (S)-1-(2,6-difluoro-4-(2-(methylsulfonamido)ethoxy)benzyl)-3,4-dimethyl-2-oxo-N-(2,4,6-trifluorobenzyl)-1,2,3,4-tetrahydroquinazoline-7-carboxamide], for which the EC50 in assay [1], in assay [2], in assay [3], in assay [4], in assay [5] and in assay [6] was < 1000 nM throughout.
As to `C[C@H]1c2ccc(C(=O)NCc3c(F)cc(F)cc3F)cc2N(Cc2c(F)cc(OCCO)cc2F)C(=O)N1C` [Example 80, (S)-1-(2,6-Difluoro-4-(2-hydroxyethoxy)benzyl)-3,4-dimethyl-2-oxo-N-(2,4,6-trifluorobenzyl)-1,2,3,4-tetrahydroquinazoline-7-carboxamide], the EC50 is < 1000 nM in assay [1]; 1000 to 10000 nM in assay [2]; < 1000 nM in assay [3]; < 1000 nM in assay [4]; 1000 to 10000 nM in assay [5]; < 1000 nM in assay [6].
For `C[C@H]1c2ccc(C(=O)NCc3c(F)cc(F)cc3F)cc2N(Cc2c(F)ccc(N)c2Cl)C(=O)N1C` [Example 188, (S)-1-(3-amino-2-chloro-6-fluorobenzyl)-3,4-dimethyl-2-oxo-N-(2,4,6-trifluorobenzyl)-1,2,3,4-tetrahydroquinazoline-7-carboxamide], the EC50 in assay [1], in assay [2], in assay [3], in assay [4], in assay [5] and in assay [6] was < 1000 nM throughout.
`Cc1cccc(F)c1CN1C(=O)N(C)C(C)c2ccc(C(=O)NCc3c(F)cc(F)cc3F)cc21` (stereo not drawn) [Example 162, 1-(2-fluoro-6-methylbenzyl)-3,4-dimethyl-2-oxo-N-(2,4,6-trifluorobenzyl)-1,2,3,4-tetrahydroquinazoline-7-carboxamide]: the EC50 in assay [1], in assay [2], in assay [3], in assay [4], in assay [5] and in assay [6] was < 1000 nM in each case.
For `C[C@H]1c2ccc(C(=O)NCc3c(F)cc(F)cc3F)cc2N(Cc2c(F)cc(OCCCO)cc2F)C(=O)N1C` [Example 81, (S)-1-(2,6-difluoro-4-(3-hydroxypropoxy)benzyl)-3,4-dimethyl-2-oxo-N-(2,4,6-trifluorobenzyl)-1,2,3,4-tetrahydroquinazoline-7-carboxamide], the EC50 in assay [1], in assay [2], in assay [3], in assay [4], in assay [5] and in assay [6] was < 1000 nM throughout.
With `C[C@H]1c2ccc(C(=O)NCc3c(F)cc(F)cc3F)cc2N(Cc2cc(OCCCO)cc(F)c2F)C(=O)N1C` [Example 283, (S)-1-(2,3-difluoro-5-(3-hydroxypropoxy)benzyl)-3,4-dimethyl-2-oxo-N-(2,4,6-trifluorobenzyl)-1,2,3,4-tetrahydroquinazoline-7-carboxamide], the EC50 in assay [1] is < 1000 nM; in assay [2], < 1000 nM; in assay [3], < 1000 nM; in assay [4], < 1000 nM; in assay [5] it was < 1000 nM; in assay [6], 1000 to 10000 nM.
With `C[C@H]1c2ccc(C(=O)NCc3c(F)cc(F)cc3F)cc2N(Cc2c(F)cc(O)cc2Cl)C(=O)N1C` [Example 298, (S)-1-(2-chloro-6-fluoro-4-hydroxybenzyl)-3,4-dimethyl-2-oxo-N-(2,4,6-trifluorobenzyl)-1,2,3,4-tetrahydroquinazoline-7-carboxamide], the EC50 in assay [1], in assay [2], in assay [3], in assay [4], in assay [5] and in assay [6] was < 1000 nM throughout.
As for `C[C@H]1c2ccc(C(=O)NCc3c(F)cc(F)cc3F)cc2N(Cc2c(F)cc(O)cc2F)C(=O)N1C` [Example 78, (S)-1-(2,6-difluoro-4-hydroxybenzyl)-3,4-dimethyl-2-oxo-N-(2,4,6-trifluorobenzyl)-1,2,3,4-tetrahydroquinazoline-7-carboxamide], the EC50 in assay [1], in assay [2], in assay [3], in assay [4], in assay [5] and in assay [6] was < 1000 nM each time.
For the compound `COc1ccc(F)c(F)c1CN1C(=O)N(C)[C@@H](C)c2ccc(C(=O)NCc3c(F)cc(F)cc3F)cc21` [Example 241, (S)-1-(2,3-difluoro-6-methoxybenzyl)-3,4-dimethyl-2-oxo-N-(2,4,6-trifluorobenzyl)-1,2,3,4-tetrahydroquinazoline-7-carboxamide], the EC50 in assay [1], in assay [2], in assay [3], in assay [4], in assay [5] and in assay [6] was < 1000 nM throughout.
Consider `C[C@H]1c2ccc(C(=O)NCc3c(F)cc(F)cc3F)cc2N(Cc2c(F)ccc(F)c2Cl)C(=O)N1C` [Example 179, (S)-1-(2-chloro-3,6-difluorobenzyl)-3,4-dimethyl-2-oxo-N-(2,4,6-trifluorobenzyl)-1,2,3,4-tetrahydroquinazoline-7-carboxamide], for which the EC50 in assay [1], in assay [2], in assay [3], in assay [4], in assay [5] and in assay [6] was < 1000 nM in each case.
`CC(=O)Nc1ccc(COC(=O)Oc2cc(F)c(CN3C(=O)N(C)[C@@H](C)c4ccc(C(=O)NCc5c(F)cc(F)cc5F)cc43)c(F)c2)cc1` [Example 85, (S)-4-Acetamidobenzyl-(4-((3,4-dimethyl-2-oxo-7-((2,4,6-trifluorobenzyl)carbamoyl)-3,4-dihydroquinazolin-1(2H)-yl)methyl)-3,5-difluorophenyl) carbonate]: the EC50 in assay [1], in assay [2], in assay [3], in assay [4], in assay [5] and in assay [6] was < 1000 nM in each case.
Take `C[C@H]1c2ccc(C(=O)NCc3c(F)cc(F)cc3F)cc2N(Cc2cc(O)cc(F)c2F)C(=O)N1C` [Example 281, (S)-1-(2,3-difluoro-5-hydroxybenzyl)-3,4-dimethyl-2-oxo-N-(2,4,6-trifluorobenzyl)-1,2,3,4-tetrahydroquinazoline-7-carboxamide]: the EC50 in assay [1], in assay [2], in assay [3], in assay [4], in assay [5] and in assay [6] was < 1000 nM in each case.
For the compound `C[C@H]1c2ccc(C(=O)NCc3c(F)cc(F)cc3F)cc2N(Cc2c(F)cccc2Cl)C(=O)N1C` (single isomer, unassigned) [Example 76], the EC50 in assay [1], in assay [2], in assay [3], in assay [4], in assay [5] and in assay [6] was < 1000 nM throughout.
On to `Cc1ncc(Cl)c(CN2C(=O)N(C)[C@@H](C)c3ccc(C(=O)NCc4c(F)cc(F)cc4F)cc32)c1F` [Example 77, (S)-1-((5-chloro-3-fluoro-2-methylpyridin-4-yl)methyl)-3,4-dimethyl-2-oxo-N-(2,4,6-trifluorobenzyl)-1,2,3,4-tetrahydroquinazoline-7-carboxamide], for which the EC50 in assay [1], in assay [2], in assay [3], in assay [4], in assay [5] and in assay [6] was < 1000 nM throughout.
As for `C[C@H]1c2ccc(C(=O)NCc3c(F)cc(F)cc3F)cc2N(Cc2c(F)ccc(O)c2Cl)C(=O)N1C` [Example 87, (S)-1-(2-Chloro-6-fluoro-3-hydroxybenzyl)-3,4-dimethyl-2-oxo-N-(2,4,6-trifluorobenzyl)-1,2,3,4-tetrahydroquinazoline-7-carboxamide], the EC50 in assay [1], in assay [2], in assay [3], in assay [4], in assay [5] and in assay [6] was < 1000 nM each time.
